The results in this text go back to patent US20210030719A1, “GRP94 INHIBITORS TO TREAT STEROID-INDUCED OCULAR HYPERTENSIONS AND GLAUCOMAS” (UNIVERSITY OF SOUTH FLORIDA, priority 2018, published 2021).

For test [1], the system named is ECM components (Collagen I, Fibronectin). The test can be described thus: ECM components in lysates of anterior eye sections of SIG model mice (dot blot / Western blot). As to conditions: dex & 4Br-BnIm treated group; overall not statistically significant. Format: in vivo, mouse. An excerpt:
Animal Husbandry: Mice were housed and bred at the University of South Florida Byrd Alzheimer's Institute. All animal procedures performed in this study followed the ARVO Statement for the Use of Animals in Ophthalmic and Vision Research and were approved by the University of South Florida Institutional Animal Care and Use Committee. A cohort of 35 animals from separate litters were used for this study; 20 male mice (10 WT and 10 Myoc-KO) and 15 female mice (8 WT and 7 Myoc-KO). […] Technicians performing the drug delivery and tonometry measurements were blinded for animal genotype as well as each compound and the respective vehicle treatment. […] No other treatment groups or geneotypes suffered losses. One WT animal on the Dex+4Br—BnIm study began the study with only one eye. […] 4Br—BnIm treatment dose was based on previous studies. […] The drop was allowed to sit on the eye for 1 minute before the mouse was returned to its cage. One drop of 0.1% Dexamethasone eye drops (Dexamethasone Sodium Phosphate Ophthalmic Solution USP, 0.1% Dexamethasone Phosphate Equivalent; Bauch and Lomb) or PBS (vehicle) was applied to each eye. Dexamethasone treatments were conducted at 6:30 AM, 9 AM, and 2 PM, every day. […]
Quantification and Statistical Analysis: Two-tailed student's t-test and two-way ANOVA with Bonferroni's post-hoc tests were used as detailed in the figure legends. […]

The subject of test [2] is human trabecular meshwork (HTM) cells. The test can be described thus: HTM cell lysates, intracellular Collagen I and Fibronectin (Western blot). It counts as cell-based. The protocol:
(§1) HTM Treatments: Low passage number human trabecular meshwork (HTM) cells were cultured in DMEM supplemented with 10% fetal bovine serum and 1% penicillin/streptomycin. HTM cells were treated for 10 days (replaced every 2-3 days) with 100 nM dexamethasone. HTM cells were validated by expression of myocilin under these conditions.
(§2) Western and Dot Blots: Anterior eye segments and HTM cells were lysed in RIPA buffer. HTM lysates were separated by SDS-PAGE and transferred to a PVDF membrane. Lysates and culture media for dot blots were applied to a nitrocellulose membrane. Blots were blocked in 7% non-fat milk solution. Myocilin antibody was provided by W. D. Stamer. Collagen I and Fibronectin antibodies were purchased from Santa Cruz Biotechnology. Actin antibody was purchased from Sigma Aldrich (St. Louis, Mo.). Blots were developed using species specific secondary antibodies from Southern Biotech.
(§3) Quantification and Statistical Analysis: Two-tailed student's t-test and two-way ANOVA with Bonferroni's post-hoc tests were used as detailed in the figure legends. Values were considered significant if p<0.05. Graphs were generated using GraphPad Prism 5.0 analysis software or Microsoft Excel. N-value in this study is depicted as number of animals or number of eyes where indicated. Graphs are plotted as ±SEM or % CV as indicated.

In another test the test system is mutant myocilin. The test can be described thus: Cellular studies of mutant myocilin degradation. Format: cell-based.
A further test concerns Wild-type (WT) mice. The test can be described thus: Mouse model of steroid-induced glaucoma, IOP by rebound tonometer, WT mice. It counts as in vivo. To be noted: 0.1% dexamethasone topically to the eye three times per day.
The subject of test [3] is human trabecular meshwork (HTM) cells. The test can be described thus: HTM cell culture medium, extracellular proteins (dot blot). Format: cell-based. To be noted: dexamethasone. The protocol: as §1, §2, §3
Setting [4] is: HTM cells treated with dex, 24 hours after Grp94 inhibitor treatment.
Setting [5] is: HTM cells, 4Br-BnIm in the absence of dexamethasone.

Procedure for Wild-type (WT) mice: A cohort of 35 animals from separate litters were used for this study; 20 male mice (10 WT and 10 Myoc-KO) and 15 female mice (8 WT and 7 Myoc-KO). […] Technicians performing the drug delivery and tonometry measurements were blinded for animal genotype as well as each compound and the respective vehicle treatment. […] The drop was allowed to sit on the eye for 1 minute before the mouse was returned to its cage. One drop of 0.1% Dexamethasone eye drops (Dexamethasone Sodium Phosphate Ophthalmic Solution USP, 0.1% Dexamethasone Phosphate Equivalent; Bauch and Lomb) or PBS (vehicle) was applied to each eye. Dexamethasone treatments were conducted at 6:30 AM, 9 AM, and 2 PM, every day.
IOP Measurements: IOP levels in the mouse eye were obtained using the Icare TonoLab rebound tonometer and their guidelines were followed (Icare, Finland). Measurements were taken at LOAM to control for diurnal fluctuations in IOP levels which occur throughout the day. Mice were anesthetized with 3-4% isoflurane in oxygen once a week. After mice were sufficiently anesthetized, the mice were placed in an open restraint platform and IOP measurements were taken for each eye. […]

In the case of `COC(=O)c1c(O)cc(O)c(Cl)c1CCc1nccn1Cc1ccc(Br)cc1` [4Br—BnIm, methyl 2-(2-(1(4-bromobenzyl)-1H-imidazol-2-yl)ethyl)-3-chloro-4,6-dihydroxybenzoate], in test [1], the “Collagen I in anterior eye lysates” value is “decrease in the mean values” and the “Fibronectin in anterior eye lysates” value is given as “decrease in the mean values”. In addition, in test [2] (setting [4]), the “intracellular Collagen I levels” value is listed as “statistically significant decreases” and the “intracellular Fibronectin levels” value was “statistically significant decreases”. Further, in test [2] (setting [5]), the “Intracellular Collagen I” value is given as “unchanged” and the “Intracellular Fibronectin” value is reported as “unchanged”. In addition, in the test on mutant myocilin, the “effect on toxic mutant myocilin” value is reported as “degradation of toxic mutant myocilin”.

For `C[C@@H]1C[C@H]2[C@@H]3CCC4=CC(=O)C=C[C@]4(C)[C@@]3(F)[C@@H](O)C[C@]2(C)[C@@]1(O)C(=O)CO` [dexamethasone], in the test with Wild-type (WT) mice, the “increase in IOP” value was “roughly 33%”. For the same molecule, the “increase of extracellular myocilin” value in test [3] is reported as “over 500%”.
